This assay concerns the target myeloperoxidase (MPO) (Homo sapiens (Human), UniProt P05164). As to the kind of experiment: MPO chlorination assay (APF). The assay is classed as biochemical. Conditions: MPO chlorination assay, ranges given; read-out: MPO chlorination assay IC50. As to the method:
MPO chlorination activity was measured in 100 mM KPi (pH 7.4) by utilizing the non-fluorescent reagent Aminophenyl fluorescein (APF, Invitrogen catalog #A36003). APF is cleaved by (—OCl) to yield the fluorescent compound fluorescein. Reactions were carried out in 50 μL total volume by adding a 25 μL mixture of 200 pM myeloperoxidase and 120 mM NaCl to 100 nL inhibitor in 100% DMSO in a 384 well, non-binding surface clear bottom plate (CORNING® #3655). Enzyme, inhibitor, and chloride were preincubated for ten minutes at rt.
After the ten minute preincubation, 25 μL of an APF mixture containing […], 120 mM NaCl and 10 μM H2O2 was added to the plate using the internal dispensing system of a Hammatsu FDSS 6000. Kinetic determinations were carried out immediately on the FDSS 6000 (3 minute kinetic read, 1 read every second, ex: 485 nm, em: 535 nm). IC50 values for inhibitors were calculated by taking the slope of the linear portion of the kinetic measurement (20 seconds to ˜80-120 secs). […]
[formula] where A=minimal Y value (activity level of inhibited sample), B=maximal Y value (activity level of uninhibited sample), C=Log IC50, D=Hill Slope, x=concentration of inhibitor. EPX Bromination Assay

pIC50: −log10 of the molar value.

For orientation: pIC50 means −log10 of the IC50, conventionally taken in molar units.

myeloperoxidase (MPO), sequence (P05164 49-745): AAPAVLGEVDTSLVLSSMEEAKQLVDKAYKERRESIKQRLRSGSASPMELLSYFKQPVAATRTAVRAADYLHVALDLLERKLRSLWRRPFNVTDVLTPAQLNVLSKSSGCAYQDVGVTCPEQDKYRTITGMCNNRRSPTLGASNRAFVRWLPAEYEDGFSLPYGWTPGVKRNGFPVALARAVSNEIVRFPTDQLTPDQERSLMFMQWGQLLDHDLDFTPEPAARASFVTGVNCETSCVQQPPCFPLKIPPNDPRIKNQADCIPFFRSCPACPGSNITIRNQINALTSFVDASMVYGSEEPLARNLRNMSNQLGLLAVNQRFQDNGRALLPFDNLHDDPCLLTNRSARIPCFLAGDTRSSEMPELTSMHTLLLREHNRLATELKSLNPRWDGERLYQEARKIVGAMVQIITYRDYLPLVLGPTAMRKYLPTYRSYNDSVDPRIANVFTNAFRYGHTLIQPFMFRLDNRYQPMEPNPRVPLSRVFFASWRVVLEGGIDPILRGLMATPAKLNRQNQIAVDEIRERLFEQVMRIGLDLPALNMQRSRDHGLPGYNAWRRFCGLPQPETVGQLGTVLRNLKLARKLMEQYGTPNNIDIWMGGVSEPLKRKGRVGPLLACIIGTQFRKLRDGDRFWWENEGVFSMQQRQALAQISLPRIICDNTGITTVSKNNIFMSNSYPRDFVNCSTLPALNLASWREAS

Take `Nc1cc(SCc2c(Cl)ccnc2Cl)c2nn[nH]c2n1` [Example 48, 7-(((2,4-dichloropyridin-3-yl)methyl)thio)-3H-[1,2,3] triazolo[4,5-b]pyridin-5-amine]: the pIC50 was 6.70 to 7.22.

As for `Nc1cc(SCc2cc(OC(F)(F)F)ccc2F)c2nn[nH]c2n1` [Example 49, 7-((2-fluoro-5-(trifluoromethoxy)benzyl)thio)-3H-[1,2,3]triazolo[4,5-b]pyridin-5-amine], the pIC50 was 6.70 to 7.22.

On to `COC(=O)C(Sc1cc(N)nc2[nH]nnc12)c1ccccc1Cl` (stereo not drawn) [Example 50, methyl 2-((5-amino-3H-[1,2,3]triazolo[4,5-b]pyridin-7-yl)thio)-2-(2-chlorophenyl)acetate], for which the pIC50 is 6.70 to 7.22.

Consider `COC(=O)c1ccc(F)c(CSc2cc(N)nc3[nH]nnc23)c1` [Example 52, methyl 3-(((5-amino-3H-[1,2,3]triazolo[4,5-b]pyridin-7-yl)thio)methyl)-4-fluorobenzoate], for which the pIC50 is 6.70 to 7.22.

Take `CS(=O)(=O)c1ccc(F)cc1CSc1cc(N)nc2[nH]nnc12` [Example 53, 7-((5-fluoro-2-(methylsulfonyl)benzyl)thio)-3H-[1,2,3]triazolo[4,5-b]pyridin-5-amine]: the pIC50 is 6.70 to 7.22.

In the case of `CC(Sc1cc(N)nc2[nH]nnc12)c1ccccc1S(C)(=O)=O` (stereo not drawn) [Example 54, 7-((1-(2-(methylsulfonyl)phenyl)ethyl)thio)-3H-[1,2,3]triazolo[4,5-b]pyridin-5-amine], the pIC50 is 6.70 to 7.22.

Consider `CC1(NC(=O)c2ccc(F)c(CSc3cc(N)nc4[nH]nnc34)c2)CC1` [Example 55, 3-(((5-amino-3H-[1,2,3]triazolo[4,5-b]pyridin-7-yl)thio)methyl)-4-fluoro-N-(1-methylcyclopropyl) benzamide], for which the pIC50 is 6.00 to 6.70.

Take `N#Cc1cc(F)ccc1CSc1cc(N)nc2[nH]nnc12` [Example 56, 2-(((5-amino-3H-[1,2,3]triazolo[4,5-b]pyridin-7-yl)thio)methyl)-5-fluorobenzonitrile]: the pIC50 is no less than 7.22.

Take `Cc1cc(CSc2cc(N)nc3[nH]nnc23)n(C)n1` [Example 58, 7-(((1,3-dimethyl-1H-pyrazol-5-yl)methyl)thio)-3H-[1,2,3]triazolo[4,5-b] pyridin-5-amine]: the pIC50 is 6.00 to 6.70.

As to `Cc1nn(C)c(Cl)c1CSc1cc(N)nc2[nH]nnc12` [Example 60, 7-(((5-chloro-1,3-dimethyl-1H-pyrazol-4-yl)methyl)thio)-3H-[1,2,3]triazolo[4,5-b]pyridin-5-amine], the pIC50 is no less than 7.22.

Take `Nc1cc(SCc2cc(Cl)ccc2S(=O)(=O)Cc2ccccc2)c2nn[nH]c2n1` [Example 61, 7-((2-(benzylsulfonyl)-5-chlorobenzyl)thio)-3H-[1,2,3]triazolo[4,5-b]pyridin-5-amine]: the pIC50 was 6.70 to 7.22.

Turning to `Nc1cc(SCc2nn(Cc3ccccc3)c3ccccc23)c2nn[nH]c2n1` [Example 62, 7-(((1-benzyl-1H-indazol-3-yl)methyl)thio)-3H-[1,2,3] triazolo[4,5-b]pyridin-5-amine], the pIC50 is 6.70 to 7.22.

Turning to `CCc1nn(-c2ccccc2)nc1CSc1cc(N)nc2[nH]nnc12` [Example 63, 7-(((5-ethyl-2-phenyl-2H-1,2,3-triazol-4-yl)methyl)thio)-3H-[1,2,3]triazolo[4,5-b]pyridin-5-amine], the pIC50 was 6.70 to 7.22.

On to `Nc1cc(SCc2c(Cl)cccc2S(N)(=O)=O)c2nn[nH]c2n1` [Example 64, 2-(((5-amino-3H-[1,2,3]triazolo[4,5-b]pyridin-7-yl)thio)methyl)-3-chlorobenzenesulfonamide], for which the pIC50 was no less than 7.22.

Consider `Cc1nn(-c2ccccc2)nc1CSc1cc(N)nc2[nH]nnc12` [Example 65, 7-(((5-methyl-2-phenyl-2H-1,2,3-triazol-4-yl)methyl)thio)-3H-[1,2,3]triazolo[4,5-b]pyridin-5-amine], for which the pIC50 is 6.70 to 7.22.

Regarding `Cc1nn(-c2cccc(F)c2)nc1CSc1cc(N)nc2[nH]nnc12` [Example 67, 7-(((2-(3-fluorophenyl)-5-methyl-2H-1,2,3-triazol-4-yl)methyl)thio)-3H-[1,2,3] triazolo[4,5-b]pyridin-5-amine], the negative-log IC50 (pIC50) was 6.00 to 6.70.

As to `N#Cc1cccc(F)c1CSc1cc(N)nc2[nH]nnc12` [Example 68, 2-(((5-amino-3H-[1,2,3]triazolo[4,5-b]pyridin-7-yl)thio)methyl)-3-fluorobenzonitrile], the negative-log IC50 (pIC50) is no less than 7.22.

As to `COc1cccc(-n2nc(C)c(CSc3cc(N)nc4[nH]nnc34)n2)c1` [Example 69, 7-(((2-(3-methoxyphenyl)-5-methyl-2H-1,2,3-triazol-4-yl)methyl)thio)-3H-[1,2,3] triazolo[4,5-b]pyridin-5-amine], the pIC50 is 6.00 to 6.70.

Regarding `Cn1nc(-c2ccccc2)c(CSc2cc(N)nc3[nH]nnc23)c1Cl` [Example 71, 7-(((5-chloro-1-methyl-3-phenyl-1H-pyrazol-4-yl)methyl)thio)-3H-[1,2,3] triazolo[4,5-b]pyridin-5-amine], the pIC50 was 6.00 to 6.70.

With `N#Cc1ccc(Cl)cc1CSc1cc(N)nc2[nH]nnc12` [Example 73, 2-(((5-amino-3H-[1,2,3]triazolo[4,5-b]pyridin-7-yl)thio)methyl)-4-chlorobenzonitrile], the pIC50 is 6.70 to 7.22.

As for `N#Cc1cc(Cl)ccc1CSc1cc(N)nc2[nH]nnc12` [Example 74, 2-(((5-amino-3H-[1,2,3]triazolo[4,5-b]pyridin-7-yl)thio)methyl)-5-chlorobenzonitrile], the pIC50 is no less than 7.22.

For the compound `N#Cc1c(Cl)cccc1CSc1cc(N)nc2[nH]nnc12` [Example 75, 2-(((5-amino-3H-[1,2,3]triazolo[4,5-b]pyridin-7-yl)thio)methyl)-6-chlorobenzonitrile], the pIC50 was 6.70 to 7.22.

Consider `Cc1nn(Cc2ccccc2)c(Cl)c1CSc1cc(N)nc2[nH]nnc12` [Example 76, 7-(((1-benzyl-5-chloro-3-methyl-1H-pyrazol-4-yl)methyl)thio)-3H-[1,2,3] triazolo[4,5-b]pyridin-5-amine], for which the pIC50 is 6.70 to 7.22.

Turning to `Cn1nc(C(F)(F)F)c(CSc2cc(N)nc3[nH]nnc23)c1Cl` [Example 78, 7-(((5-chloro-1-methyl-3-(trifluoromethyl)-1H-pyrazol-4-yl)methyl)thio)-3H-[1,2,3]triazolo[4,5-b] pyridin-5-amine], the pIC50 was no less than 7.22.

Consider `Cc1nn(CC2CC2)c(C)c1CSc1cc(N)nc2[nH]nnc12` [Example 80, 7-(((1-(cyclopropylmethyl)-3,5-dimethyl-1H-pyrazol-4-yl)methyl)thio)-3H-[1,2,3] triazolo[4,5-b]pyridin-5-amine], for which the pIC50 was 6.70 to 7.22.

In the case of `Cc1nn(C2CC2)c(C)c1CSc1cc(N)nc2[nH]nnc12` [Example 81, 7-(((1-cyclopropyl-3,5-dimethyl-1H-pyrazol-4-yl)methyl)thio)-3H-[1,2,3] triazolo[4,5-b]pyridin-5-amine], the pIC50 is 6.70 to 7.22.

In the case of `Cc1nn(C2CCC2)c(C)c1CSc1cc(N)nc2[nH]nnc12` [Example 82, 7-(((1-cyclobutyl-3,5-dimethyl-1H-pyrazol-4-yl)methyl)thio)-3H-[1,2,3] triazolo[4,5-b]pyridin-5-amine], the pIC50 was 6.70 to 7.22.

Consider `N#Cc1ccc(C2CC2)cc1CSc1cc(N)nc2[nH]nnc12` [Example 87, 2-(((5-amino-3H-[1,2,3]triazolo[4,5-b]pyridin-7-yl)thio)methyl)-4-cyclopropylbenzonitrile], for which the pIC50 is no less than 7.22.

As to `N#Cc1cccc(C2CC2)c1CSc1cc(N)nc2[nH]nnc12` [Example 89, 2-(((5-amino-3H-[1,2,3]triazolo[4,5-b]pyridin-7-yl)thio)methyl)-3-cyclopropylbenzonitrile], the pIC50 is 6.70 to 7.22.

For `N#Cc1cccc(CSc2cc(N)nc3[nH]nnc23)c1` [Example 91, 3-(((5-amino-3H-[1,2,3]triazolo[4,5-b]pyridin-7-yl)thio)methyl)benzonitrile], the pIC50 was no less than 7.22.

In the case of `Nc1cc(SCc2ccccc2-c2ccccn2)c2nn[nH]c2n1` [Example 92, 7-((2-(pyridin-2-yl)benzyl)thio)-3H-[1,2,3]triazolo[4,5-b]pyridin-5-amine], the pIC50 is 6.70 to 7.22.

As for `CN(C)Cc1cccc(CSc2cc(N)nc3[nH]nnc23)c1` [Example 93, 7-((3-((dimethylamino)methyl)benzyl)thio)-3H-[1,2,3]triazolo[4,5-b]pyridin-5-amine], the pIC50 is no less than 7.22.

As to `Nc1cc(SCc2ccccc2CN2CCOCC2)c2nn[nH]c2n1` [Example 94, 7-((2-(morpholinomethyl)benzyl)thio)-3H-[1,2,3] triazolo[4,5-b]pyridin-5-amine], the pIC50 is 6.70 to 7.22.

On to `Nc1cc(SCc2ccccc2CN2CCC2)c2nn[nH]c2n1` [Example 95, 7-((2-(azetidin-1-ylmethyl)benzyl)thio)-3H-[1,2,3] triazolo[4,5-b]pyridin-5-amine], for which the pIC50 is 6.70 to 7.22.

In the case of `CN(C)Cc1ccccc1CSc1cc(N)nc2[nH]nnc12` [Example 96, 7-((2-((dimethylamino)methyl)benzyl)thio)-3H-[1,2,3]triazolo[4,5-b]pyridin-5-amine], the pIC50 is 6.70 to 7.22.

`Nc1cc(SCc2ccccc2CN2CCCCC2)c2nn[nH]c2n1` [Example 97, 7-((2-(piperidin-1-ylmethyl)benzyl)thio)-3H-[1,2,3] triazolo[4,5-b]pyridin-5-amine]: the negative logarithm of the IC50 (pIC50) was 6.70 to 7.22.

For the origin of these results see patent publication US10981879B2, “Thioether triazolopyridine and triazolopyrimidine inhibitors of myeloperoxidase” (BRISTOL-MYERS SQUIBB COMPANY, priority 2014, dated 2021).
